Results: article PMC9895061 (Signal Transduction and Targeted Therapy, 2023)

How the values were obtained:
[1] = target: T1, PRDX1 (Homo sapiens, UniProt Q06830); assay: Trx-TrxR-NADPH coupling peroxiredoxin activity assay, PRDX1; format: biochemical; details: recombinant PRDX1, 1.5 h incubation, mean ± SEM, triplicate; read-out: IC50 against the peroxidase activity of PRDX1
T1 sequence (Q06830 1-199): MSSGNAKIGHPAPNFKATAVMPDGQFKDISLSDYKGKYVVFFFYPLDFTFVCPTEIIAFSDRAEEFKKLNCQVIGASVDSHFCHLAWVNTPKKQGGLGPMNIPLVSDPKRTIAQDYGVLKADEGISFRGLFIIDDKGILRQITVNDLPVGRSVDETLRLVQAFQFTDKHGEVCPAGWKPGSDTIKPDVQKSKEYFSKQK

[2] = system: recombinant PRDX1; assay: Click labeling assay; format: binding, human; details: recombinant PRDX1, streptavidin HRP blot; competed by Celastrol
Procedure: The click labeling method used in this paper refers to these researches.[49],[50] Alkynylated compounds were incubated with recombinant proteins for 1 h in buffer C (20 mM Hepes, […]). For some PRDX1 wild type samples, unalkynylated compounds were pre-incubated with proteins for 0.5 h before incubating with alkynylated compounds. The work concentration of proteins is 1 µM. After compounds incubation, the protein samples were subjected to click reaction procedures through terminal alkynyl group as previously described.[49],[50] Protein samples were resolved with SDS-PAGE and blotted with streptavidin HRP (1:10000, Thermo Scientific) and anti-PRDX1 antibody (8499, 1:1000, Cell Signaling Technology).

melting point [°C] | IC50 [1] [nM] | SMILES | covalent binding to PRDX1 by click labeling (in words) [2]
151.9 to 155.7 | 280 ± 40 | COC(=O)[C@H](Cc1ccccc1)NC(=O)N[C@]1(C)CC[C@]2(C)CC[C@]3(C)C4=CC=C5C(=CC(=O)C(O)=C5C)[C@]4(C)CC[C@@]3(C)[C@@H]2C1 [19-266, Methyl (((2R,4aS,6aS,12bR,14aS,14bR)-10-hydroxy-2,4a,6a,9,12b,14a-hexamethyl-11-oxo-1,2,3,4,4a,5,6,6a,11,12b,13,14,14a,14b-tetradecahydropicen-2-yl)carbamoyl)-L-phenylalaninate] | –
123.4 to 127.8 | – | C#CCCOC(=O)[C@@H](C)NC(=O)N[C@]1(C)CC[C@]2(C)CC[C@]3(C)C4=CC=C5C(=CC(=O)C(O)=C5C)[C@]4(C)CC[C@@]3(C)[C@@H]2C1 | –

SMILES | melting point [°C] | IC50 [1] [nM] | covalent binding to PRDX1 by click labeling (in words) [2]
C#CCOCCOCCNC(=O)[C@]1(C)CC[C@]2(C)CC[C@]3(C)C4=CC=C5C(=CC(=O)C(O)=C5C)[C@]4(C)CC[C@@]3(C)[C@@H]2C1 [alkynylated Celastrol, (2R,4aS,6aS,12bR,14aS,14bR)-10-hydroxy-2,4a,6a,9,12b,14a-hexamethyl-11-oxo-N-(2-(2-(prop-2-yn-1-yloxy)ethoxy)ethyl)-1,2,3,4,4a,5,6,6a,11,12b,13,14,14a,14b-tetradecahydropicene-2-carboxamide] | 64.7 to 68 | – | covalently bound to PRDX1
